The results in this text go back to article PMC12624831, “Expanding Peptide Chemical Space via Acid-Mediated Arginine Modification” (Organic Letters, 2025).

This data set deals with HEK cells stably expressing a HaloTag-GFP-mitochondrial localized construct. The data set is described as follows: Chloroalkane penetration/permeability assay (CAPA). The data set is classed as in vitro ADME. Particulars: modified peptide versus its unmodified control (ct-1l, ct-1m). The protocol: at room temperature. Peptides were synthesized using standard protocols. Peptides were cleaved from the resin using a cocktail of 95:5, trifluoroacetic acid:water for 2 h. The resin was removed by filtration, and the resulting solution was concentrated via air flow. The residue was washed with cold ether (3 x 10 mL), precipitating a white solid. Ether was removed via vacuum overnight. The white solid was diluted with ACN/H2O mixture. The resulting solution was purified by HPLC.
VI. BD FACSymphony™ Flow Cytometer. Flow cytometry analysis was performed on a BD FACSymphony™ system equipped with decagon (2-10 PMTs) or cascade (2-20 PMTs) detector arrays. […] Signal detection combines PMTs (side scatter/fluorescence) and photodiodes (forward scatter), with longpass dichroic and bandpass filters for wavelength selection. […] The absorbance of the molecule is 533 nm and emission is […]
VII. […] After recovery from selection and reaching near-confluency, the cells were deemed ready for CAPA experiments. […]
Experimental Protocol Design Control Implementation. […] No-molecule control wells receive only dilution buffer during the pulse step, thereby establishing the maximum red fluorescence baseline. […]

*1 amine or outer side, *2 acyl side, *3 side chain or, on linkers, in order; H or OH if unused. Where a SMILES comes first, the peptide text is derived from it. [ ]: non-standard residue; d: D form. The star is where a group is joined. NH(CH2CH2O)2(CH2)6Cl = ClCCCCCCOCCOCCN*; Suc = O=C(CCC(=O)[*:2])[*:1]; 2Pyrimidinyl = c1cnc(*)nc1; Orn = NCCC[C@H](N)C(=O)O

For `CC[C@H](C)[C@H](NC(=O)[C@H](CO)NC(=O)[C@@H](NC(=O)[C@@H]1CCCN1C(=O)[C@H](CCCNc1ncccn1)NC(=O)[C@H](Cc1c[nH]c2ccccc12)NC(=O)CCC(=O)NCCOCCOCCCCCCCl)C(C)C)C(N)=O` [ct-2l] ({NH(CH2CH2O)2(CH2)6Cl-Suc}-W[Orn](2Pyrimidinyl)PVSI-NH2), the “increase in membrane permeability following conversion of arginine into the amino pyrimidine derivative” value is reported as 2 fold. To `CC(C)[C@H](NC(=O)CCC(=O)NCCOCCOCCCCCCCl)C(=O)NCC(=O)N[C@@H](CCCNc1ncccn1)C(=O)N[C@@H](C)C(=O)N[C@@H](Cc1c[nH]c2ccccc12)C(=O)N[C@@H](CC(N)=O)C(=O)N[C@@H](Cc1ccc(O)cc1)C(=O)N[C@@H](C)C(N)=O` [ct-2m] ({NH(CH2CH2O)2(CH2)6Cl-Suc}-VG[Orn](2Pyrimidinyl)AWNYA-NH2) belongs 2 fold.
